Test results published in BigSolDB 2.1.

Cc1cnc(C(=O)O)cn1
solubility (mole fraction)
Details | 273.15 K | 278.15 K | 283.15 K | 288.15 K | 293.15 K | 298.15 K | 303.15 K | 308.15 K | 313.15 K
in 1,4-dioxane | – | – | – | 1.88e-05 | 2.16e-05 | 2.48e-05 | 2.84e-05 | 3.29e-05 | 3.84e-05
in 2-butanone | 5.8e-06 | 6.8e-06 | 8e-06 | 9.3e-06 | 1.06e-05 | 1.21e-05 | 1.39e-05 | 1.58e-05 | 1.79e-05
in acetone | 6.7e-06 | 8e-06 | 9.3e-06 | 1.07e-05 | 1.21e-05 | 1.39e-05 | 1.56e-05 | 1.78e-05 | 2e-05
in acetonitrile | 2.48e-06 | 2.92e-06 | 3.44e-06 | 4.01e-06 | 4.6e-06 | 5.34e-06 | 6.05e-06 | 6.88e-06 | 7.79e-06
in ethanol | 1.09e-05 | 1.27e-05 | 1.49e-05 | 1.71e-05 | 1.97e-05 | 2.25e-05 | 2.57e-05 | 2.93e-05 | 3.33e-05
in ethyl acetate | 4.31e-06 | 5.04e-06 | 5.82e-06 | 6.63e-06 | 7.5e-06 | 8.4e-06 | 9.45e-06 | 1.07e-05 | 1.2e-05
in isopropanol | 7.8e-06 | 9.1e-06 | 1.04e-05 | 1.19e-05 | 1.36e-05 | 1.56e-05 | 1.78e-05 | 2.03e-05 | 2.28e-05
in methanol | 8.5e-06 | 1e-05 | 1.16e-05 | 1.36e-05 | 1.56e-05 | 1.77e-05 | 2.01e-05 | 2.29e-05 | 2.57e-05
in n-butanol | 9.4e-06 | 1.08e-05 | 1.25e-05 | 1.43e-05 | 1.65e-05 | 1.9e-05 | 2.19e-05 | 2.51e-05 | 2.87e-05
in n-propanol | 1e-05 | 1.17e-05 | 1.36e-05 | 1.58e-05 | 1.82e-05 | 2.07e-05 | 2.34e-05 | 2.68e-05 | 3.06e-05
in toluene | 9.7e-07 | 1.1e-06 | 1.25e-06 | 1.42e-06 | 1.65e-06 | 1.89e-06 | 2.18e-06 | 2.5e-06 | 2.89e-06
in water | 3.32e-06 | 3.83e-06 | 4.46e-06 | 5.16e-06 | 5.86e-06 | 6.74e-06 | 7.7e-06 | 8.83e-06 | 1.01e-05
